# Patent publication US20260144875A1, “COMPOSITIONS AND METHODS FOR CROSSLINKING STRUCTURAL PROTEINS” (ADS Therapeutics LLC, priority 2022, published 2026)
# Tests used:
# porcine corneas = test: Ex vivo study (Dresden method), RTB-UVA crosslinking, static stress-strain, de-epithelialized corneas; details: de-epithelialized porcine corneal strips; 0.1% RTB in MCT or F6H8 or combination; UVA 370 nm, 3 mW/cm2, 30 minutes
# Method: Fresh porcine cadaver eyes with intact epithelia and clear corneas are retrieved from the local slaughterhouse within 2 to 5 hours post-mortem. The eyes are de-epithelialized mechanically, removing the corneoscleral ring with scissors. […] Because of the natural thickness of the porcine cornea, only 1 corneal strip with clearly cut perpendicular edges could be prepared properly from each eye. Half of the corneas are treated with RTB-UVA irradiation, and half are used as untreated controls. Using ultrasound pachymetry (Pachette, Technomed), the central corneal thickness is determined in the eyes. […]
# The porcine corneal strips are clamped horizontally at a distance of 8.0 mm between the jaws of a commercially available microcomputer-controlled biomaterial tester (Minimat, Rheometric Scientific GmbH. To include the physiological stress range, a prestress of 5×10^3 Pa (1 Pa=1 N/m2) is used, which requires a force of 20 mN in porcine corneas. The strain is then increased linearly with a velocity of 1.5 mm min-1, and the stress is measured up to 2×10^5 Pa. The stress-strain values are fitted by an exponential function σ=A exp (BX) using the SPSS-calculation program (SPSS GmbH Software, Munich). Young's modulus (E) is calculated for 4%, 6%, and 8% strain as the gradient of the stress-strain graph (E=dσ/dε=A×B exp (B×ε). […]
# [1] = Impurities from riboflavin tetrabutyrate in aqueous solution; assay type: physicochemical; details: PBS
# Method: The impurities present in PBS solutions, with or without 10% hydroxy-propyl-beta-cyclodextrin (HP-β-CD) as solubilizer, at varying pH, with riboflavin tetrabutyrate (RTB) was investigated. Using similar sample analysis methods described in Examples 1a-1c, the impurities were determined.
# [2] = Solubility of RTB in MCT, F6H8 or mixed solvents, HPLC; assay type: physicochemical; details: 25° C.
# Method: Solubility of riboflavin tetrabutyrate (RTB) was tested in medium chain triglycerides (MCT), F6H8, or mixtures of MCT/F6H8 at room temperature, and in F6H8 at 100° C. Solubility was analyzed as in Example 1a.
# [3] = Sample YA1, HP-β-CD 10%, pH 5.0
# [4] = Sample YA2, HP-β-CD 10%, pH 6.0
# [5] = Sample YA3, HP-β-CD 10%, pH 7.0
# [6] = Sample YA4, without HP-β-CD, pH 5.0
# [7] = Sample YA5, without HP-β-CD, pH 6.0
# [8] = Sample YA6, without HP-β-CD, pH 7.0
smiles,measurement,setting,value
"CCCC(=O)OC[C@@H](OC(=O)CCC)[C@@H](OC(=O)CCC)[C@H](Cn1c2nc(=O)[nH]c(=O)c-2nc2cc(C)c(C)cc21)OC(=O)CCC [RTB, (2R,3S,4S)-5-(7,8-dimethyl-2,4-dioxo-3,4-dihydrobenzo[g]pteridin-10(2H)-yl) pentane-1,2,3,4-tetrayl tetrabutyrate]","stress using strain, treated vs untreated corneas",porcine corneas,greater in the treated corneas
same,Other Impurities,[1]; [3],2.94%
same,Riboflavin,[1]; [3],0%
same,Riboflavin Tetrabutyrate,[1]; [3],96.28%
same,Other Impurities,[1]; [4],10.65%
same,Riboflavin,[1]; [4],2.45%
same,Riboflavin Tetrabutyrate,[1]; [4],87.2%
same,Other Impurities,[1]; [5],9.39%
same,Riboflavin,[1]; [5],2.03%
same,Riboflavin Tetrabutyrate,[1]; [5],88.58%
same,Other Impurities,[1]; [6],22.54%
same,Riboflavin,[1]; [6],7.24%
same,Riboflavin Tetrabutyrate,[1]; [6],70.22%
same,Other Impurities,[1]; [7],20.58%
same,Riboflavin,[1]; [7],7.52%
same,Riboflavin Tetrabutyrate,[1]; [7],71.90%
same,Other Impurities,[1]; [8],19.8%
same,Riboflavin,[1]; [8],8.92%
same,Riboflavin Tetrabutyrate,[1]; [8],71.30%
same,Solubility,"[2]; Sample B2, MCT 100%, F6H8 0%",3.133 µg/mL
same,Solubility,"[2]; Sample B3, MCT 20%, F6H8 80%",0.316 µg/mL
same,Solubility,"[2]; Sample B4, MCT 50%, F6H8 50%",1.124 µg/mL
same,Solubility,"[2]; Sample B5, MCT 70%, F6H8 30%",1.582 µg/mL
